Results from US20230312587A1, “PTERIDINONE COMPOUNDS AND USES THEREOF” (Vertex Pharmaceutical Incorporated, priority 2018, published 2023).
Like-named read-outs stand apart in the source and are kept apart here.

How the values were obtained:
Type in all cases: cell-based
[1] = system: β-catenin-TCF-mediated reporter transcription activity in Colo 205 cells; assay: Colo 205 reporter assay (TCF/LEF luciferase); settings: Homo sapiens, COLO 205, 5 h, five hours after addition of compound
Procedure, shortened: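 Luciferase signal from a TCF/LEF-driven reporter, stably integrated in Colo 205 colon cancer cells, was measured 5 h after compound addition.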

Colo-205 cells = assay: Calcium flux assay (FLIPR Calcium 5); settings: Homo sapiens, COLO 205, 0.6 h, FLIPR Calcium 5, measured over 36 minutes
Method: Compounds described herein induced ER stress by causing intracellular calcium flux. Calcium flux was measured in Colo-205 cells using the FLTPR® Calcium 5 Assay Kit according to manufacter's protocol (Molecular Devices, Cat. #R8186) on a FLIPR3 system (Molecular Devices). Calcium flux is measured over 36 minutes. The Colo-205 calcium flux assay data are summarized in Table 47: A<0.6 μM; 0.6 μM≤B<2.0 μM; 2.0 μM≤C<10.0 μM; D≥10.0 μM.

Hek293 empty vector = assay: In vitro cell viability (CellTiter-Glo), Hek293 empty vector; settings: Homo sapiens
Method: HEK293 (ATCC, catalog #CRL-1573) cells are plated in 10 cm dishes (Corning, product #430167) into 10 mL of complete DMEM cell culture media [DMEM (Life Technologies, product #11960-051) media supplemented with 10% FBS (Hyclone, catalog #SH30071.03), antimycotic/antibiotic (Life Technologies, product #15240-062), and Glutamax (Life Technologies, product #35050-061)] at 3×10^6 cells per dish. Cells are allowed to attach and grow overnight at 37° C. in humidified 5% CO2. Cells are co-transfected with pVSV-G, pCMV-Gag/Pol and pCLPCX_WFS1 using Fugene 6 (Promega, catalog #E2691) according to manufacturer's protocol. Separately, cells are co-transfected with pVSV-G, pCMV-Gag/Pol and pCLPCX to produce control retrovirus. Cell culture media containing retrovirus (viral supernatant) is collected at 48 and 72 hours following transfection, filtered through a 0.4 uM filter, and stored at −80° C.
HEK293 cells are plated in 6 well plates (Corning, product #3516) in 2 mL of complete DMEM cell culture media at 1×10^5 cells well and allowed to attach and grow overnight at 37° C. in humidified 5% CO2. The following day, the media is replaced with viral supernatant to which 10 ug/ml of Polybrene® (Santa Cruz Biotech, catalog #sc-134220) is added. Viral supernatant is replaced 24 hours later with complete DMEM media. Transduced cells are selected in complete DMEM cell culture media containing 1 microgram/mL of puromycin (Life Technologies, catalog #A1113803).
HEK293 cells containing empty pCLPCx vector (HEK293 empty), HEK293 cells stably over-expression WFS1 (HEK293 WFS1), HepG2, and HepG2 cells where WFS1 was depleted via CRISPR/Cas9 (HepG2 WFS1 KO) cells were plated into 96-well black plates (Corning, product #3904) in 100 microliters of complete DMEM cell culture media [DMEM (Life Technologies, product #11960-051) media supplemented with 10% FBS (Hyclone, catalog #SH30071.03), antimycotic/antibiotic (Life Technologies, product #15240-062), and Glutamax (Life Technologies, product #35050-061)] at 1,000 (HEK293) or 5,000 (HepG2) cells per well. Cells were allowed to attach and grow overnight, after which compounds are added at various concentrations. Cell viability was assessed 96 hrs after compound addition with CellTiter-Glo reagent (Promega, catalog #G7570) according to manufacturer's protocol and measurement on a Pherastar luminescence plate reader (BMG Labtech).
The IC50s for the viability of both the Hek293 empty vector and WFS1 over-expressing cells are summarized in Table 47: A<0.06 μM; 0.06 μM≤B<0.6 μM; 0.6 μM≤C<3.0 μM; D≥3.0 μM.

[2] = Colo 205 TCF/LEF luciferase reporter, read-out: TCF reporter Colo205 IC50
[3] = HEK293, read-out: Hek293 empty vector viability
[4] = Colo 205 cells with stably transfected TCF/LEF luciferase reporter, read-out: TCF reporter Colo205

| Compound | IC50 [1, 2] [µM] | EC50 (Colo-205 cells) [µM] | IC50 (Hek293 empty vector; [3]) [µM] | IC50 [1, 4] [µM] | IC50 (Hek293 empty vector; cell viability, Hek293 empty vector, read-out: IC50) [µM] | IC50 (Hek293 empty vector; cell viability, Hek293 empty vector, read-out: IC50 class) [µM] |
| --- | --- | --- | --- | --- | --- | --- |
| Cc1nc(N[C@H]2C[C@H](Oc3ccc(F)cc3)C2)nc2c1N(C)C(=O)[C@H](C)N2C [Compound 250, (7S)-2-((trans-3-(4-fluorophenoxy)cyclobutyl)amino)-4,5,7,8-tetramethyl-7,8-dihydropteridin-6(5H)-one] | 0.3 to 1 | 0.6 to 2 | ≥ 3 | – | – | – |
| Cc1nc(N[C@H]2C[C@H](Oc3ccc(C(F)(F)F)nc3)C2)nc2c1NC(=O)[C@H](C)N2C [Compound 324, (7S)-4,7,8-trimethyl-2-((trans-3-((6-(trifluoromethyl)pyridin-3-yl)oxy)cyclobutyl)amino)-7,8-dihydropteridin-6(5H)-one] | < 0.3 | < 0.6 | ≥ 3 | – | – | – |
| Cc1nc(NCc2cnn(Cc3cc(C(F)(F)F)nn3C)c2)nc2c1NC(=O)[C@H](C(C)C)N2C [Compound 397, (7S)-7-Isopropyl-4,8-dimethyl-2-(((1-((1-methyl-3-(trifluoromethyl)-1H-pyrazol-5-yl)methyl)-1H-pyrazol-4-yl)methyl)amino)-7,8-dihydropteridin-6(5H)-one] | – | 0.6 to 2 | ≥ 3 | < 0.3 | – | – |
| Cc1cc(F)ncc1Cn1cc(CNc2nc(C)c3c(n2)N(C)[C@@H](C(C)C)C(=O)N3)cn1 [Compound 423, (7S)-2-(((1-((6-fluoro-4-methylpyridin-3-yl)methyl)-1H-pyrazol-4-yl)methyl)amino)-7-isopropyl-4,8-dimethyl-7,8-dihydropteridin-6(5H)-one] | < 0.3 | 0.6 to 2 | ≥ 3 | – | – | – |
| COc1cc(F)ccc1Cn1cc(CNc2nc(C)c3c(n2)N(C)[C@@H](C)C(=O)N3)cn1 [Compound 83, (7S)-2-(((1-(4-fluoro-2-methoxybenzyl)-1H-pyrazol-4-yl)methyl)amino)-4,7,8-trimethyl-7,8-dihydropteridin-6(5H)-one] | < 0.3 | < 0.6 | ≥ 3 | – | – | – |
| Cc1nc(NCc2cnn(CC3CCC3)c2)nc2c1N(C)C(=O)[C@H](C)N2C [Compound 7, (7S)-2-(((1-(cyclobutylmethyl)-1H-pyrazol-4-yl)methyl)amino)-4,5,7,8-tetramethyl-7,8-dihydropteridin-6(5H)-one] | 0.3 to 1 | 0.6 to 2 | ≥ 3 | – | – | – |
| Cc1nc(N(C)Cc2cnn(Cc3ccc(C(F)(F)F)nc3)c2)nc2c1NC(=O)[C@H](C)N2C [Compound 403, (7S)-4,7,8-trimethyl-2-(methyl((1-((6-(trifluoromethyl)pyridin-3-yl)methyl)-1H-pyrazol-4-yl)methyl)amino)-7,8-dihydropteridin-6(5H)-one] | – | ≥ 10 | ≥ 3 | ≥ 5 | – | – |
| Cc1nc(NCc2cnn(Cc3cncc(F)c3)c2)nc2c1NC(=O)[C@H](C(C)C)N2C [Compound 415, (7S)-2-(((1-((5-fluoropyridin-3-yl)methyl)-1H-pyrazol-4-yl)methyl)amino)-7-isopropyl-4,8-dimethyl-7,8-dihydropteridin-6(5H)-one] | < 0.3 | 0.6 to 2 | ≥ 3 | – | – | – |
| COc1c(F)cc(Cn2cc(CNc3nc(C)c4c(n3)N(C)[C@@H](C)C(=O)N4)cn2)cc1F [Compound 46, (7S)-2-(((1-(3,5-difluoro-4-methoxybenzyl)-1H-pyrazol-4-yl)methyl)amino)-4,7,8-trimethyl-7,8-dihydropteridin-6(5H)-one] | < 0.3 | < 0.6 | ≥ 3 | – | – | – |
| Cc1nn(C)cc1Cn1cc(CNc2nc(C)c3c(n2)N(C)[C@@H](C)C(=O)N3)cn1 [Compound 139, (7S)-2-(((1-((1,3-dimethyl-1H-pyrazol-4-yl)methyl)-1H-pyrazol-4-yl)methyl)amino)-4,7,8-trimethyl-7,8-dihydropteridin-6(5H)-one] | 1 to 5 | 2 to 10 | ≥ 3 | – | – | – |
| Cc1nc(N[C@H]2C[C@@H](Sc3ccc(F)cc3)C2)nc2c1N(C)C(=O)[C@H](C)N2C [Compound 305, (7S)-2-((cis-3-((4-fluorophenyl)thio)cyclobutyl)amino)-4,5,7,8-tetramethyl-7,8-dihydropteridin-6(5H)-one] | 0.3 to 1 | 0.6 to 2 | ≥ 3 | – | – | – |
| Cc1nc(N[C@H]2C[C@H](Oc3cc(F)c(F)c(F)c3)C2)nc2c1N(C)C(=O)[C@H](C)N2C [Compound 253, (7S)-4,5,7,8-tetramethyl-2-((trans-3-(3,4,5-trifluorophenoxy)cyclobutyl)amino)-7,8-dihydropteridin-6(5H)-one] | < 0.3 | < 0.6 | ≥ 3 | – | 15 | ≥ 3 |
| Cc1nc(N[C@H]2C[C@@H](COc3ccc(C(F)(F)F)cn3)C2)nc2c1NC(=O)[C@H](C)N2C [Compound 356, (7S)-4,7,8-trimethyl-2-((cis-3-(((5-(trifluoromethyl)pyridin-2-yl)oxy)methyl)cyclobutyl)amino)-7,8-dihydropteridin-6(5H)-one] | 0.3 to 1 | 0.6 to 2 | ≥ 3 | – | – | – |
| Cc1nc(N[C@H]2C[C@@H](COc3cc(F)c(F)c(F)c3)C2)nc2c1NC(=O)[C@H](C)N2C [Compound 257, (7S)-4,7,8-Trimethyl-2-((cis-3-((3,4,5-trifluorophenoxy)methyl)cyclobutyl)-amino)-7,8-dihydropteridin-6(5H)-one] | < 0.3 | 0.6 to 2 | ≥ 3 | – | – | – |
| Cc1nc(N[C@@H]2CC[C@@H](n3ccc(C(F)(F)F)n3)C2)nc2c1NC(=O)[C@H](C)N2C (single isomer, unassigned) [Compound 311] | < 0.3 | < 0.6 | ≥ 3 | – | – | – |
| CC[C@H]1C(=O)Nc2c(C)nc(NCc3cnn(Cc4ccc(C(F)(F)F)nc4)c3)nc2N1C [Compound 186, (7S)-7-ethyl-4,8-dimethyl-2-(((1-((6-(trifluoromethyl)pyridin-3-yl)methyl)-1H-pyrazol-4-yl)methyl)amino)-7,8-dihydropteridin-6(5H)-one] | < 0.3 | 0.6 to 2 | ≥ 3 | – | – | – |
| Cc1nc(NCc2cnn(Cc3ccnc(C(F)(F)F)c3)c2)nc2c1NC(=O)[C@H](C)N2C [Compound 207, (7S)-4,7,8-trimethyl-2-(((1-((2-(trifluoromethyl)pyridin-4-yl)methyl)-1H-pyrazol-4-yl)methyl)amino)-7,8-dihydropteridin-6(5H)-one] | < 0.3 | 0.6 to 2 | ≥ 3 | – | – | – |
| CC[C@H]1C(=O)Nc2cnc(NCc3cnn(Cc4ccc(F)cc4)c3)nc2N1C [Compound 9, (7S)-7-ethyl-2-(((1-(4-fluorobenzyl)-1H-pyrazol-4-yl)methyl)amino)-8-methyl-7,8-dihydropteridin-6(5H)-one] | < 0.3 | 0.6 to 2 | ≥ 3 | – | – | – |
| CN1C(=O)C(C)(C)N(C)c2nc(NCc3cnn(Cc4cccnc4C(F)(F)F)c3)ncc21 [Compound 237, 5,7,7,8-Tetramethyl-2-(((1-((2-(trifluoromethyl)pyridin-3-yl)methyl)-1H-pyrazol-4-yl)methyl)amino)-7,8-dihydropteridin-6(5H)-one] | 0.3 to 1 | 0.6 to 2 | ≥ 3 | – | – | – |
| Cc1ncc(Cn2cc(CNc3nc(C)c4c(n3)N(C)[C@@H](C)C(=O)N4)cn2)cn1 [Compound 163, (7S)-4,7,8-trimethyl-2-(((1-((2-methylpyrimidin-5-yl)methyl)-1H-pyrazol-4-yl)methyl)amino)-7,8-dihydropteridin-6(5H)-one] | 1 to 5 | 2 to 10 | ≥ 3 | – | – | – |
